Measurements taken from patent US10696615B2, “Prenylated hydroxystilbenes” (The University of Sydney, priority 2011, dated 2020).

Columns and labels:
[1] = tested on: SF-268; experiment: NCI in vitro cancer screen, CNS Cancer; type: cell-based, human; conditions: SF-268
[2] = tested on: SF-539; experiment: NCI in vitro cancer screen, CNS Cancer; type: cell-based; conditions: SF-539
[3] = tested on: OVCAR-3; experiment: NCI in vitro cancer screen, Ovarian Cancer; type: cell-based, human; conditions: OVCAR-3
[4] = tested on: U251; experiment: NCI in vitro cancer screen, CNS Cancer; type: cell-based, human; conditions: U251
[5] = tested on: HCT-116; experiment: NCI in vitro cancer screen, Colon Cancer; type: cell-based, human; conditions: HCT-116
[6] = tested on: NCI-H23; experiment: NCI in vitro cancer screen, Non-Small Cell Lung Cancer; type: cell-based, human; conditions: NCI-H23
[7] = tested on: MDA-MB-468; experiment: NCI in vitro cancer screen, Breast Cancer; type: cell-based, human; conditions: MDA-MB-468
[8] = tested on: HS 578T; experiment: NCI in vitro cancer screen, Breast Cancer; type: cell-based, human
[9] = tested on: IGROV1; experiment: NCI in vitro cancer screen, Ovarian Cancer; type: cell-based, human; conditions: IGROV1
[10] = tested on: MCF7; experiment: NCI in vitro cancer screen, Breast Cancer; type: cell-based, human; conditions: MCF7
[11] = tested on: OVCAR-4; experiment: NCI in vitro cancer screen, Ovarian Cancer; type: cell-based, human; conditions: OVCAR-4
[12] = tested on: HT29; experiment: NCI in vitro cancer screen, Colon Cancer; type: cell-based, human; conditions: HT29
[13] = tested on: TK-10; experiment: NCI in vitro cancer screen, Renal Cancer; type: cell-based, human; conditions: TK-10
[14] = tested on: OVCAR-5; experiment: NCI in vitro cancer screen, Ovarian Cancer; type: cell-based, human; conditions: OVCAR-5
[15] = tested on: SNB-19; experiment: NCI in vitro cancer screen, CNS Cancer; type: cell-based, human; conditions: SNB-19
[16] = tested on: SW-620; experiment: NCI in vitro cancer screen, Colon Cancer; type: cell-based, human; conditions: SW-620
[17] = tested on: SK-MEL-28; experiment: NCI in vitro cancer screen, Melanoma; type: cell-based, human; conditions: SK-MEL-28
[18] = tested on: KM12; experiment: NCI in vitro cancer screen, Colon Cancer; type: cell-based, human; conditions: KM12
[19] = tested on: HOP-62; experiment: NCI in vitro cancer screen, Non-Small Cell Lung Cancer; type: cell-based, human; conditions: HOP-62
[20] = tested on: CAKI-1; experiment: NCI in vitro cancer screen, Renal Cancer; type: cell-based, human; conditions: CAKI-1
[21] = tested on: CCRF-CEM; experiment: NCI in vitro cancer screen, Leukemia; type: cell-based, human
[22] = tested on: DU-145; experiment: NCI in vitro cancer screen, Prostate Cancer; type: cell-based, human; conditions: DU-145
[23] = tested on: UACC-257; experiment: NCI in vitro cancer screen, Melanoma; type: cell-based, human; conditions: UACC-257
[24] = tested on: OVCAR-8; experiment: NCI in vitro cancer screen, Ovarian Cancer; type: cell-based, human; conditions: OVCAR-8
[25] = tested on: EKVX; experiment: NCI in vitro cancer screen, Non-Small Cell Lung Cancer; type: cell-based, human
[26] = tested on: NCI-H226; experiment: as above; type: cell-based, human; conditions: NCI-H226
[27] = tested on: HOP-92; experiment: as above; type: cell-based, human; conditions: HOP-92
[28] = tested on: SK-MEL-5; experiment: NCI in vitro cancer screen, Melanoma; type: cell-based, human; conditions: SK-MEL-5
[29] = Homo sapiens, read-out: LC50 (the source's name)

CC(C)=CCc1c(O)cc(/C=C/c2ccc(O)cc2)c(CC=C(C)C)c1O [USYDS6, (E)-2,4-di(3-methyl-2-buten-1-yl)-3,4′,5-trihydroxystilbene]
GI50 ([1]; Homo sapiens): 2.78 µM | CC50 [1, 29]: 44.3 µM | TGI [1]: 8.97 µM | GI50 ([2]; Homo sapiens): 4.48 µM | CC50 [2, 29]: 57.1 µM | TGI [2]: 17.6 µM | GI50 ([3]; Homo sapiens): 2.1 µM | CC50 [3, 29]: 8.85 µM | TGI [3]: 4.31 µM | GI50 ([4]; Homo sapiens, U-251): 2.33 µM | CC50 ([4]; Homo sapiens, U-251, read-out: LC50 (the source's name)): 16.7 µM | TGI [4]: 5.31 µM | TGI [5]: 3.78 µM | GI50 ([5]; Homo sapiens): 1.89 µM | GI50 ([6]; Homo sapiens): 3.38 µM | TGI [6]: 15.7 µM | GI50 ([7]; Homo sapiens): 2.3 µM | CC50 [7, 29]: 26 µM | TGI [7]: 6.39 µM | TGI [8]: 5.29 µM | GI50 ([8]; Homo sapiens): 1.67 µM | CC50 [8, 29]: 35.8 µM | GI50 ([9]; Homo sapiens, IGROV-1): 5.23 µM | CC50 ([9]; Homo sapiens, IGROV-1, read-out: LC50 (the source's name)): 54.1 µM | TGI [9]: 17.7 µM | GI50 ([10]; Homo sapiens): 4.02 µM | CC50 [10, 29]: 60.5 µM | TGI [10]: 18.0 µM | GI50 ([11]; Homo sapiens): 4.4 µM | CC50 [11, 29]: 43.5 µM | TGI [11]: 16.1 µM | TGI [12]: 17.6 µM | GI50 ([12]; Homo sapiens, HT-29): 5.44 µM | CC50 ([12]; Homo sapiens, HT-29, read-out: LC50 (the source's name)): 48.3 µM | GI50 ([13]; Homo sapiens): 3.36 µM | TGI [13]: 9.33 µM | GI50 ([14]; Homo sapiens): 5.86 µM | CC50 [14, 29]: 53.3 µM | TGI [14]: 20.0 µM | GI50 ([15]; Homo sapiens): 6.38 µM | CC50 [15, 29]: 52.7 µM | TGI [15]: 20.6 µM | GI50 ([16]; Homo sapiens): 1.84 µM | CC50 [16, 29]: 6.82 µM | TGI [16]: 3.54 µM | GI50 ([17]; Homo sapiens): 11.2 µM | TGI [17]: 24.0 µM | GI50 ([18]; Homo sapiens): 2.21 µM | CC50 [18, 29]: 8.64 µM | TGI [18]: 4.37 µM | TGI [19]: 17.5 µM | GI50 ([19]; Homo sapiens): 5.11 µM | CC50 [19, 29]: 44 µM | TGI [20]: 22.6 µM | GI50 ([20]; Homo sapiens): 8.37 µM | CC50 [20, 29]: 55.7 µM | TGI [21]: 9.17 µM | GI50 ([21]; Homo sapiens): 2.96 µM | CC50 [21, 29]: 82.1 µM | TGI [22]: 12.9 µM | GI50 ([22]; Homo sapiens): 3.47 µM | CC50 [22, 29]: 40.1 µM | GI50 ([23]; Homo sapiens): 3.49 µM | CC50 [23, 29]: 39.8 µM | TGI [23]: 14.4 µM | GI50 ([24]; Homo sapiens): 2.95 µM | CC50 [24, 29]: 42.9 µM | TGI [24]: 9.51 µM | TGI [25]: 21.4 µM | GI50 ([25]; Homo sapiens): 7.19 µM | CC50 [25, 29]: 54.4 µM | GI50 ([26]; Homo sapiens): 1.47 µM | TGI [26]: 30.1 µM | TGI [27]: 4.67 µM | GI50 ([27]; Homo sapiens): 1.86 µM | CC50 [27, 29]: 14.5 µM | GI50 ([28]; Homo sapiens): 2.29 µM | CC50 [28, 29]: 22.1 µM | TGI [28]: 6.17 µM
